According to ChEMBL document CHEMBL1201862, “PubChem BioAssay data set” (2004):
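Protocol summary: plate cells (96-well), add compound at 5 concentrations, incubate 48 h, interpolate endpoints linearly. Abbreviation: GI50, concentration required for 50% inhibition of growth.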 Calls of active or inactive are those of the source. No stated cut-off is given here; in the data, active = GI50 up to about 1.1 µM and inactive = higher.

Experiments:
Experiment in all cases: inhibition of tumour cell growth, NCI panel, 48 h
Hs-578T = test system: Hs-578T
KM-20L2 = test system: KM-20L2
RXF 631 = test system: RXF 631
HOP-18 = test system: HOP-18
DMS-273 = test system: DMS-273
LXFL 529 = test system: LXFL 529
DLD-1 = test system: DLD-1
SNB-78 = test system: SNB-78
XF498 = test system: XF498

Measured: GI50

CN(C)/N=C1\CC(c2ccccc2)C(C#N)(C#N)C1(C#N)C#N (centres undefined)
inactive: Hs-578T 29.7 µM

CCCCCCCCOCC(O)COC(=O)CCCCCCC (centres undefined)
inactive: KM-20L2 > 100 µM | RXF 631 > 100 µM | HOP-18 > 100 µM | DMS-273 44.6 µM | LXFL 529 > 100 µM | DLD-1 > 100 µM

O=[N+]([O-])C(=C/c1cccc2ccccc12)/C(=C\c1cccc2ccccc12)[N+](=O)[O-]
inactive: Hs-578T 3.01 µM

O=C1Sc2ccccc2C(=O)N2CCSC12 (centres undefined)
inactive: KM-20L2 > 100 µM | SNB-78 > 100 µM | HOP-18 25.6 µM | DMS-273 > 100 µM | LXFL 529 > 100 µM | DLD-1 > 100 µM

CC1=C(C(=O)NCc2ccccc2)C(c2ccc(N(C)C)cc2)C(C(=O)NCc2ccccc2)=C(C)N1
inactive: XF498 > 100 µM | KM-20L2 > 100 µM | RXF 631 > 100 µM | SNB-78 > 100 µM | DMS-273 > 100 µM | LXFL 529 > 100 µM | DLD-1 > 100 µM

COC(=O)CC(=O)OSc1ccccc1
inactive: KM-20L2 20 µM | RXF 631 11.4 µM | DMS-273 22.7 µM | DLD-1 17.2 µM

CCOC(=O)C(Cl)(NC(=O)OCc1ccccc1)C(F)(F)F (centres undefined)
inactive: Hs-578T > 100 µM

CCCCCC(/C=C/[C@@H]1CC(=O)C[C@H]1O[Si](C)(C)C(C)(C)C)OCOCCOC (some centres undefined)
inactive: Hs-578T 2.9 µM

c1ccc2c(c1)[nH]c1c2cc[n+]2cc3c(cc12)CCCC3
inactive: Hs-578T 3.87 µM

O=C(c1ccccc1O)c1cc(-c2ncc3c(=O)c4ccccc4oc3n2)c(-c2ccccc2O)[nH]c1=O
inactive: XF498 29.9 µM | SNB-78 34.2 µM | HOP-18 33.3 µM | DMS-273 26.8 µM | DLD-1 24.4 µM

NCc1ccccc1C1CSCSC1
inactive: XF498 > 100 µM | SNB-78 > 100 µM | DMS-273 > 100 µM | LXFL 529 > 100 µM | DLD-1 > 100 µM

O=C(OCCN=C1c2ccccc2CCc2ccccc21)c1ccccc1
inactive: Hs-578T > 100 µM

COc1ccc(C(=O)N=C2N(c3ccccc3)C(=N/c3ccccc3)/C(=N\c3ccccc3)N2c2ccccc2)cc1
inactive: Hs-578T 7.78 µM

O=C(c1ccco1)c1ccccc1C(=O)c1ccco1
inactive: XF498 > 100 µM | KM-20L2 > 100 µM | RXF 631 > 100 µM | SNB-78 > 100 µM | HOP-18 61.5 µM | DMS-273 > 100 µM | LXFL 529 > 100 µM | DLD-1 > 100 µM

COC1OC(C(C)O)C2OC(C)(C)OC12 (centres undefined)
inactive: Hs-578T > 100 µM

COc1ccc(-c2c(C(C)=O)c(C)n(C3OC(CO)C(O)C(O)C3O)c(=S)c2C#N)cc1 (centres undefined)
inactive: Hs-578T 98.2 µM

O=C(CC1(O)C(=O)Nc2ccccc21)c1ccc2ccccc2c1 (centres undefined)
inactive: XF498 93.8 µM | KM-20L2 > 100 µM | RXF 631 > 100 µM | SNB-78 > 100 µM | DMS-273 > 100 µM | LXFL 529 > 100 µM | DLD-1 > 100 µM

CC1=C(C#N)c2nc3ccccc3n2C(=O)C1(C)CCO (centres undefined)
inactive: Hs-578T > 100 µM

CCCC(C(=O)Nc1cccc2nc[nH]c12)C(=O)OCC (centres undefined)
inactive: Hs-578T > 100 µM

COC(=O)[C@]1(c2ccc(N(C)C)cc2OC)C[C@@H]2CCCN(CCc3c1[nH]c1ccccc31)C2
inactive: XF498 18.7 µM | KM-20L2 17.1 µM | SNB-78 31 µM | HOP-18 24.1 µM | DMS-273 20.5 µM | DLD-1 27.2 µM

O=C(O)CCS/C(=C\C(SCCC(=O)O)c1ccc(Cl)cc1)c1ccc(Cl)cc1 (centres undefined)
inactive: Hs-578T 63.5 µM

CCOP(=O)(OCC)C(C)(CC)N/C(N)=N/C#N (centres undefined)
inactive: Hs-578T > 100 µM

CC(=O)Nc1ccc(/C=C(\NC(=O)c2ccccc2)C(=O)NNS(=O)(=O)c2ccc(C)cc2)cc1
inactive: XF498 > 100 µM | KM-20L2 > 100 µM | SNB-78 > 100 µM | HOP-18 > 100 µM | DMS-273 18.2 µM | LXFL 529 > 100 µM | DLD-1 33 µM

CN(C)/C=C/c1nnnn1-c1ccc(I)cc1
inactive: Hs-578T 13.6 µM

Cc1nc(O)nc2c1C(NCCCN(C)C)c1cc(Cl)ccc1N2 (centres undefined)
inactive: XF498 16.6 µM | KM-20L2 12 µM | SNB-78 15.3 µM | DMS-273 12.7 µM | LXFL 529 16.9 µM | DLD-1 17.8 µM

O=C(O)CNCCc1ccccc1
inactive: Hs-578T > 100 µM

COc1cccc(-c2nc3c(C(=O)NCCN(C)C)cccc3[nH]2)c1
inactive: KM-20L2 14.4 µM | SNB-78 40.4 µM | HOP-18 18.4 µM | DMS-273 11.3 µM | DLD-1 18.5 µM

N=C1NC(c2ccc(Cl)cc2)=CC(c2cccc(Cl)c2)S1 (centres undefined)
inactive: Hs-578T 26.5 µM

O=C1c2ccccc2C2(O)NC(=S)N(c3ccccc3)C12O (centres undefined)
inactive: XF498 > 100 µM | KM-20L2 > 100 µM | SNB-78 > 100 µM | HOP-18 > 100 µM | LXFL 529 > 100 µM | DLD-1 > 100 µM
